Results reported in publication PMC10415494, “Ga(III) pyridinecarboxylate complexes: potential analogues of the second generation of therapeutic Ga(III) complexes?” (Journal of Biological Inorganic Chemistry, 2023).
Where two headings read alike, the source gives them in different places.

Columns and labels:
[1] = test system: Candida parapsilosis (C. parapsilosis) ATCC 22019; assay: Antimicrobial activity, macrodilution method (yeast, growth by A590); assay type: cell-based; conditions: Lodderomyces parapsilosis
[2] = test system: Alternaria alternata (A. alternata) CCM F-128; assay: Growth of filamentous fungi, macrodilution method on solidified PDA (colony diameter); assay type: cell-based; conditions: Alternaria alternata, read-out: IC50 A. alternata
[3] = test system: Microsporum gypseum (M. gypseum) CCM F-8342; assay: as above; assay type: cell-based; conditions: Nannizzia gypsea, read-out: IC50 M. gypseum
[4] = test system: Rhizopus oryzae (R. oryzae) CCM F-8284; assay: as above; assay type: cell-based; conditions: Rhizopus arrhizus, read-out: IC50 R. oryzae
[5] = test system: A2058 (human metastatic melanoma); assay: MTS antiproliferative assay; conditions: Homo sapiens, A2058, 72 h, read-out: Cytotoxic activity IC50 A2058
[6] = test system: HCT116 (human colorectal carcinoma); assay: MTS antiproliferative assay; conditions: Homo sapiens, HCT-116, 72 h, read-out: Cytotoxic activity IC50 HCT116
[7] = test system: HeLa (human cervical adenocarcinoma); assay: MTS antiproliferative assay; conditions: Homo sapiens, HeLa, 72 h, read-out: Cytotoxic activity IC50 HeLa
[8] = test system: Jurkat (human leukaemic T cell lymphoma); assay: MTS antiproliferative assay; conditions: Homo sapiens, Jurkat, 72 h, read-out: Cytotoxic activity IC50 Jurkat
[9] = test system: MDA-MB-231 (human mammary gland adenocarcinoma); assay: MTS antiproliferative assay; conditions: Homo sapiens, MDA-MB-231, 72 h, read-out: Cytotoxic activity IC50 MDA-MB-231
[10] = test system: PaTu 8902 (human pancreatic adenocarcinoma); assay: MTS antiproliferative assay; conditions: Homo sapiens, PaTu 8902, 72 h, read-out: Cytotoxic activity IC50 PaTu 8902
[11] = MTS antiproliferative assay (non-cancer cells); conditions: human
[12] = Filamentous fungi, solidified potato-dextrose growth medium

SMILES	IC50 ([1]; ATCC22019, read-out: IC50 C. parapsilosis)	IC50 [2]	IC50 [3]	IC50 [4]	IC50 [5]	IC50 [6]	IC50 [7]	IC50 [8]	IC50 [9]	IC50 [10]	IC50 at 72 h [11]	IC50 ([1]; ATCC22019, Yeast, Sabouraud's growth medium, 37 °C, read-out: IC50 C. parapsilosis)	IC50 [2, 12]	IC50 [3, 12]	IC50 ([4]; solidified potato-dextrose growth medium)	IC50 at 72 h ([11]; human dermal fibroblasts (HDF))
O=C(O)c1cccc(C(=O)O)n1 [H2Dpic, dipicolinic acid]	> 1000 µM	> 1000 µM	> 1000 µM	500 µM	> 200 µM	> 200 µM	> 200 µM	> 200 µM	> 200 µM	> 200 µM	> 200 µM					
O=C(O)c1ccccn1 [HPic, picolinic acid]					> 200 µM	> 200 µM	> 200 µM	> 200 µM	> 200 µM	> 200 µM		> 500 µM	> 500 µM	> 500 µM	> 500 µM	> 200 µM
